# Values of other authors as cited in patent US6818776B2, “Alkali metal salt of thiazolidine-2,4-dione derivative” (Kyorin Pharmaceutical Co., Ltd., priority 2000, dated 2004).
# How the values were obtained:
# [1] = reported in M. Nomura et al, Bioorg. Med. Chem. Lett., 1999, 9, 533
# [2] = test system: human peroxisome proliferator-activated receptor (PPAR); details: reported in K. Murakami et al, Diabetes. 1998, 47, 1841
smiles,measurement,setting,value
"COc1ccc(CC2SC(=O)NC2=O)cc1C(=O)NCc1ccc(C(F)(F)F)cc1 (centres unmarked) [KRP-297, 5-[(2,4-Dioxothiazolidin-5-yl)methyl]-2-methoxy-N-[[4-(trifluoromethyl)phenyl]methyl]benzamide]",antihyperglycemic activity,[1],excellent antihyperglycemic activity
same,agonistic action against human PPAR,[2],agonistic action
